The text below walks through data of US9663525B2, “Pyrazolopyrimidinyl inhibitors of ubiquitin-activating enzyme” (Millennium Pharmaceuticals, Inc., priority 2012, dated 2017).

By IC50 is commonly meant the concentration that inhibits the measured activity by half.

The target of this assay is recombinant human UAE (Homo sapiens (Human), UniProt P22314). Briefly: Ubiquitin Activating Enzyme (UAE) HTRF assay, human UAE. (Time-resolved FRET reads energy transfer from a long-lived donor to a nearby acceptor.)
Chain of recombinant human UAE (P22314 whole entry): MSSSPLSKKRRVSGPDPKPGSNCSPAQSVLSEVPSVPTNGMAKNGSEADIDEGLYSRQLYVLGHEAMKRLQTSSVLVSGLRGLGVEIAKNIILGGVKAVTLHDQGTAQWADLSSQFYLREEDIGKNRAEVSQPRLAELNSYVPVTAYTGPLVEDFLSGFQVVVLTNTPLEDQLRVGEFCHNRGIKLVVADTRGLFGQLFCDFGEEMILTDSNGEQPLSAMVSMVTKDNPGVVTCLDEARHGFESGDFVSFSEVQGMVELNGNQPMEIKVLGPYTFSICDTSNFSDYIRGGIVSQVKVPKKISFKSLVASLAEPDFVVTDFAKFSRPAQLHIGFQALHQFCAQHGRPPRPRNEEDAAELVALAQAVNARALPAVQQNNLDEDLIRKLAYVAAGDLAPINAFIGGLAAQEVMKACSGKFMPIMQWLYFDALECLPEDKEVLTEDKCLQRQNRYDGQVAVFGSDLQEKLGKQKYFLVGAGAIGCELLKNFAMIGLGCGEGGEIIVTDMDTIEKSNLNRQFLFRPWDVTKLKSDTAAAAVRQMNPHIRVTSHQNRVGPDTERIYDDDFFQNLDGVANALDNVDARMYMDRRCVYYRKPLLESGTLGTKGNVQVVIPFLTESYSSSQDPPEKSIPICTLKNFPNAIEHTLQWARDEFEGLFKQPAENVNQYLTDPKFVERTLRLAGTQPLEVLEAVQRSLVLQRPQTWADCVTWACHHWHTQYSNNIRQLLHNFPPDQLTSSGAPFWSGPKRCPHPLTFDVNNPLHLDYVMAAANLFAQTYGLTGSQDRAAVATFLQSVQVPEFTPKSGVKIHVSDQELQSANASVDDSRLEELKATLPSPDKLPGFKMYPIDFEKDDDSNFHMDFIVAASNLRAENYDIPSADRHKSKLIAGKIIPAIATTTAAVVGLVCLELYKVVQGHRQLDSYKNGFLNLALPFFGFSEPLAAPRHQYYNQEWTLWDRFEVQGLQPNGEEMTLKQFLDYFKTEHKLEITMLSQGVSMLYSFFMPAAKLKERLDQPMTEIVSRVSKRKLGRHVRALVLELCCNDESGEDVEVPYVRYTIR

Method: After incubation for 120 minutes, quantification of the FRET is performed on the Pherostar (BMG).
For compounds whose values are marked with an asterisk (*), mouse UAE was used. For all other compounds, human UAE was used.

As to `Cc1sc(-c2ccccc2)nc1-c1cc2nccc(N[C@@H]3C[C@H](COS(N)(=O)=O)[C@@H](O)[C@H]3O)n2n1` (racemic) [Compound I-038, (rac)-[(1R,2R,3S,4R)-2,3-dihydroxy-4-{[2-(5-methyl-2-phenyl-1,3-thiazol-4-yl)pyrazolo[1,5-a]pyrimidin-7-yl]amino}cyclopentyl]methyl rel-sulfamate], the IC50 was < 10 nM.
On to `NS(=O)(=O)OC[C@H]1C[C@@H](Nc2ccnc3cc(-c4ccc5ccccc5n4)nn23)[C@H](O)[C@@H]1O` (racemic) [Compound I-042, (rac)-((1R,2R,3S,4R)-2,3-dihydroxy-4-(2-(quinolin-2-yl)pyrazolo[1,5-a]pyrimidin-7-ylamino)cyclopentyl)methyl rel-sulfamate], for which the IC50 was < 10 nM.
In the case of `NS(=O)(=O)OC[C@H]1C[C@@H](Nc2ccnc3cc(-c4ccc5cccnc5c4)nn23)[C@H](O)[C@@H]1O` (racemic) [Compound I-043, (rac)-((1R,2R,3S,4R)-2,3-dihydroxy-4-(2-(quinolin-7-yl)pyrazolo[1,5-a]pyrimidin-7-ylamino)cyclopentyl)methyl rel-sulfamate], the IC50 is < 10 nM.
As for `NS(=O)(=O)OC[C@H]1C[C@@H](Nc2ccnc3cc(-c4cccc5ccsc45)nn23)[C@H](O)[C@@H]1O` (racemic) [Compound I-045, (rac)-((1R,2R,3S,4R)-4-((2-(Benzo[b]thiophen-7-yl)pyrazolo[1,5-a]pyrimidin-7-yl)amino)-2,3-dihydroxycyclopentyl)methyl rel-sulfamate], the IC50 was < 10 nM.
For the compound `NS(=O)(=O)OC[C@H]1C[C@@H](Nc2ccnc3cc(-c4coc5ccccc45)nn23)[C@H](O)[C@@H]1O` (racemic) [Compound I-049, (rac)-((1R,2R,3S,4R)-4-(2-(benzofuran-3-yl)pyrazolo[1,5-a]pyrimidin-7-ylamino)-2,3-dihydroxycyclopentyl)methyl rel-sulfamate], the IC50 was < 10 nM.
On to `NS(=O)(=O)OC[C@H]1C[C@@H](Nc2ccnc3cc(-c4cccc(OC(F)F)c4)nn23)[C@H](O)[C@@H]1O` (racemic) [Compound I-050, (rac)-((1R,2R,3S,4R)-4-((2-(3-(Difluoromethoxy)phenyl)pyrazolo[1,5-a-]pyrimidin-7-yl)amino)-2,3-dihydroxycyclopentyl)methyl rel-sulfamate], for which the concentration for half-maximal inhibition (IC50) was < 10 nM.
As for `NS(=O)(=O)OC[C@H]1C[C@@H](Nc2ccnc3cc(-c4cccc(Oc5ccccc5)c4)nn23)[C@H](O)[C@@H]1O` (racemic) [Compound I-051, (rac)-((1R,2R,3S,4R)-2,3-Dihydroxy-4-((2-(3-phenoxyphenyl)pyrazolo[1,5-a]pyrimidin-7-yl)amino)cyclopentyl)methyl rel-sulfamate], the IC50 lay in the range of 10 to 100 nM.
Still for that read-out and setting: next, `CC(C)(C)c1cccc(-c2cc3nccc(N[C@@H]4C[C@H](COS(N)(=O)=O)[C@@H](O)[C@H]4O)n3n2)n1` (racemic) [Compound I-052, (rac)-((1R,2R,3S,4R)-4-(2-(6-tert-butylpyridin-2-yl)pyrazolo[1,5-a]pyrimidin-7-ylamino)-2,3-dihydroxycyclopentyl)methyl rel-sulfamate]: < 10 nM; `NS(=O)(=O)OC[C@H]1C[C@@H](Nc2ccnc3cc(-c4c[nH]c5ccc(Cl)cc45)nn23)[C@H](O)[C@@H]1O` (racemic) [Compound I-054, (rac)-[(1R,2R,3S,4R)-4-{[2-(5-chloro-1H-indol-3-yl)pyrazolo[1,5-a]pyrimidin-7-yl]amino}-2,3-dihydroxycyclopentyl]methyl rel-sulfamate]: < 10 nM.
For the compound `NS(=O)(=O)OC[C@H]1C[C@@H](Nc2ccnc3cc(-c4c[nH]c5cc(Cl)ccc45)nn23)[C@H](O)[C@@H]1O` (racemic) [Compound I-055, (rac)-[(1R,2R,3S,4R)-4-{[2-(6-chloro-1H-indol-3-yl)pyrazolo[1,5-a]pyrimidin-7-yl]amino}-2,3-dihydroxycyclopentyl]methyl rel-sulfamate], the IC50 is < 10 nM.
Consider `NS(=O)(=O)OC[C@H]1C[C@@H](Nc2ccnc3cc(-c4cccc5c4sc4ccccc45)nn23)[C@H](O)[C@@H]1O` (racemic) [Compound I-056, (rac)-((1R,2R,3S,4R)-4-((2-(Dibenzo[b,d]thiophen-4-yl)pyrazolo[1,5-a]pyrimidin-7-yl)amino)-2,3-dihydroxycyclopentyl)methyl rel-sulfamate], for which the IC50 is < 10 nM.
In the case of `NS(=O)(=O)OC[C@H]1C[C@@H](Nc2ccnc3cc(-c4cc(Cl)ccc4OC(F)(F)F)nn23)[C@H](O)[C@@H]1O` (racemic) [Compound I-057, (rac)-((1R,2R,3S,4R)-4-(2-(5-chloro-2-(trifluoromethoxy)phenyl)pyrazolo[1,5-a]pyrimidin-7-ylamino)-2,3-dihydroxycyclopentyl)methyl rel-sulfamate], the IC50 was < 10 nM.
As to `CC(C)(c1cccc(-c2cc3nccc(N[C@@H]4C[C@H](COS(N)(=O)=O)[C@@H](O)[C@H]4O)n3n2)c1)C(F)(F)F` (racemic) [Compound I-058, (rac)-((1R,2R,3S,4R)-2,3-dihydroxy-4-(2-(3-(1,1,1-trifluoro-2-methylpropan-2-yl)phenyl)pyrazolo[1,5-a]pyrimidin-7-ylamino)cyclopentyl)methyl rel-sulfamate], the IC50 is < 10 nM.
As to `NS(=O)(=O)OC[C@H]1C[C@@H](Nc2ccnc3cc(-c4ccnc(C(F)(F)F)c4)nn23)[C@H](O)[C@@H]1O` (racemic) [Compound I-059, (rac)-((1R,2R,3S,4R)-2,3-dihydroxy-4-(2-(2-(trifluoromethyl)pyridin-4-yl)pyrazolo[1,5-a]pyrimidin-7-ylamino)cyclopentyl)methyl rel-sulfamate], the IC50 is 10 to 100 nM.
Consider `NS(=O)(=O)OC[C@H]1C[C@@H](Nc2ccnc3cc(-c4ccc(C(F)(F)F)s4)nn23)[C@H](O)[C@@H]1O` (racemic) [Compound I-060, (rac)-((1R,2R,3S,4R)-2,3-Dihydroxy-4-((2-(5-(trifluoromethyl)thiophen-2-yl)pyrazolo[1,5-a]pyrimidin-7-yl)amino)cyclopentyl)methyl rel-sulfamate], for which the IC50 lay in the range of 10 to 100 nM.
As for `NS(=O)(=O)OC[C@H]1C[C@@H](Nc2ccnc3cc(-c4cccc5sccc45)nn23)[C@H](O)[C@@H]1O` (racemic) [Compound I-061, (rac)-((1R,2R,3S,4R)-4-((2-(Benzo[b]thiophen-4-yl)pyrazolo[1,5-a]pyrimidin-7-yl)amino)-2,3-dihydroxycyclopentyl)methyl rel-sulfamate], the 50% inhibitory concentration (IC50) was < 10 nM.
On the same count and under the same terms, next, `NS(=O)(=O)OC[C@H]1C[C@@H](Nc2ccnc3cc(-c4ccc5c(c4)[nH]c4ccccc45)nn23)[C@H](O)[C@@H]1O` (racemic) [Compound I-062, (rac)-[(1R,2R,3S,4R)-4-{[2-(9H-carbazol-2-yl)pyrazolo[1,5-a]pyrimidin-7-yl]amino}-2,3-dihydroxycyclopentyl]methyl rel-sulfamate]: < 10 nM.
Consider `COc1ccc(C(C)(C)C)cc1-c1cc2nccc(N[C@@H]3C[C@H](COS(N)(=O)=O)[C@@H](O)[C@H]3O)n2n1` (racemic) [Compound I-063, (rac)-((1R,2R,3S,4R)-4-{[2-(5-tert-butyl-2-methoxyphenyl)pyrazolo[1,5-a]pyrimidin-7-yl]amino}-2,3-dihydroxycyclopentyl)methyl rel-sulfamate], for which, for the setting “0.111 μM compound, human UAE”, the “% inhibition @0.111 μM” value was 100%.
`NS(=O)(=O)OC[C@H]1C[C@@H](Nc2ccnc3cc(-c4cccc(C(F)(F)F)n4)nn23)[C@H](O)[C@@H]1O` (racemic) [Compound I-064, (rac)-((1R,2R,3S,4R)-2,3-dihydroxy-4-(2-(6-(trifluoromethyl)pyridin-2-yl)pyrazolo[1,5-a]pyrimidin-7-ylamino)cyclopentyl)methyl rel-sulfamate]: the IC50 lay within 10 to 100 nM.
Regarding `COc1ccc(C(F)(F)F)cc1-c1cc2nccc(N[C@@H]3C[C@H](COS(N)(=O)=O)[C@@H](O)[C@H]3O)n2n1` (racemic) [Compound I-065, (rac)-((1R,2R,3S,4R)-2,3-Dihydroxy-4-((2-(2-methoxy-5-(trifluoromethyl)phenyl)-pyrazolo[1,5-a]pyrimidin-7-yl)amino)cyclopentyl)methyl rel-sulfamate], the IC50 was < 10 nM.
Take `COc1ccc(OC(F)(F)F)cc1-c1cc2nccc(N[C@@H]3C[C@H](COS(N)(=O)=O)[C@@H](O)[C@H]3O)n2n1` (racemic) [Compound I-066, (rac)-((1R,2R,3S,4R)-2,3-Dihydroxy-4-((2-(2-methoxy-5-(trifluoromethoxy)-phenyl)pyrazolo[1,5-a]pyrimidin-7-yl)amino)cyclopentyl)methyl rel-sulfamate]: the IC50 was < 10 nM.
Same read-out and setting: the result for `NS(=O)(=O)OC[C@H]1C[C@@H](Nc2ccnc3cc(-c4ccccc4Oc4ccccc4)nn23)[C@H](O)[C@@H]1O` (racemic) [Compound I-068, (rac)-((1R,2R,3S,4R)-2,3-dihydroxy-4-(2-(2-phenoxyphenyl)pyrazolo[1,5-a]pyrimidin-7-ylamino)cyclopentyl)methyl rel-sulfamate] reads 10 to 100 nM; that for `NS(=O)(=O)OC[C@H]1C[C@@H](Nc2ccnc3cc(-c4cccc(Cc5ccccc5)c4)nn23)[C@H](O)[C@@H]1O` (racemic) [Compound I-069, (rac)-((1R,2R,3S,4R)-4-(2-(3-benzylpenyl)pyrazolo[1,5-a]pyrimidin-7-ylamino)-2,3-dihydroxycyclopentyl)methyl rel-sulfamate], 10 to 100 nM; that for `COc1cc(F)ccc1-c1cc2nccc(N[C@@H]3C[C@H](COS(N)(=O)=O)[C@@H](O)[C@H]3O)n2n1` (racemic) [Compound I-070, (rac)-((1R,2R,3S,4R)-4-(2-(4-fluoro-2-methoxyphenyl)pyrazolo[1,5-a]pyrimidin-7-ylamino)-2,3-dihydroxycyclopentyl)methyl rel-sulfamate], < 10 nM.
Same read-out and setting: the result for `NS(=O)(=O)OC[C@H]1C[C@@H](Nc2ccnc3cc(-c4csc5ccc(Cl)cc45)nn23)[C@H](O)[C@@H]1O` (racemic) [Compound I-071, (rac)-((1R,2R,3S,4R)-4-(2-(5-chlorobenzo[b]thiophen-3-yl)pyrazolo[1,5-a]pyrimidin-7-ylamino)-2,3-dihydroxycyclopentyl)methyl rel-sulfamate] reads < 10 nM.
